Drawing on patent US20240124427A1, “HYDROXYHETEROCYCLOALKANE-CARBAMOYL DERIVATIVES” (Idorsia Pharmaceuticals Ltd, priority 2021, published 2024), this text covers IC50 for 18 compounds.

Structures are written as SMILES.

Chain of human Gal-3 (hGal-3) (P17931 whole entry): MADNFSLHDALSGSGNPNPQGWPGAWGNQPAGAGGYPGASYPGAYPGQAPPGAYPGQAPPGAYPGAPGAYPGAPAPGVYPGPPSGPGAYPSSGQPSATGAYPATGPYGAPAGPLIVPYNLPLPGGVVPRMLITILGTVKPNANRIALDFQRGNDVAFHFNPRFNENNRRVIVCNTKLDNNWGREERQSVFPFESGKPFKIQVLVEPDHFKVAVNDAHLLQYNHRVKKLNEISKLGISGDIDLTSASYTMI

The assay addresses human Gal-3 (hGal-3) (Homo sapiens (Human), UniProt P17931). The assay is described as follows: Competitive binding assay: biotinylated hGal-3 binding to microplate-adsorbed asialofetuin (ASF). Particulars: Activity on hGal-3; mean values of several measurements; mixture of diastereomers measured where not separated. The method in brief:
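Biotinylated human Gal-3 binding to plate-adsorbed asialofetuin, competed by compound, 3 h at 4 °C. Bound protein detected with streptavidin-peroxidase (1 h, 4 °C) and ABTS substrate. IC50 reported as mean of several measurements.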
In the case of `CO[C@@H]1[C@@H](n2cc(-c3cc(F)c(F)c(F)c3)nn2)[C@@H](O)[C@@H](CO)O[C@H]1C(=O)N(c1cccc(Br)c1)[C@@H]1COC[C@H]1O` [Example 31, (2R,3R,4S,5R,6R)-N-(3-bromophenyl)-5-hydroxy-6-(hydroxymethyl)-N-((3R,4S)-4-hydroxytetrahydrofuran-3-yl)-3-methoxy-4-(4-(3,4,5-trifluorophenyl)-1H-1,2,3-triazol-1-yl)tetrahydro-2H-pyran-2-carboxamide], the IC50 (commonly the concentration that gives 50% inhibition) amounted to 103 nM. The value for `CO[C@@H]1[C@@H](n2cc(-c3cc(F)c(F)c(F)c3)nn2)[C@@H](O)[C@@H](CO)O[C@H]1C(=O)N(c1cc(C)cc(Br)c1)[C@H]1CN(S(C)(=O)=O)C[C@@H]1O` [Example 98, (2R,3R,4S,5R,6R)-N-(3-bromo-5-methylphenyl)-5-hydroxy-N-((3S,4S)-4-hydroxy-1-(methylsulfonyl)pyrrolidin-3-yl)-6-(hydroxymethyl)-3-methoxy-4-(4-(3,4,5-trifluorophenyl)-1H-1,2,3-triazol-1-yl)tetrahydro-2H-pyran-2-carboxamide] was 29 nM; that for `CO[C@@H]1[C@@H](n2cc(-c3cc(F)c(Cl)c(F)c3)nn2)[C@@H](O)[C@@H](CO)O[C@H]1C(=O)N(c1cc(Cl)cc(Cl)c1)[C@@H]1COC[C@H]1O` [Example 51, (2R,3R,4S,5R,6R)-4-(4-(4-chloro-3,5-difluorophenyl)-1H-1,2,3-triazol-1-yl)-N-(3,5-dichlorophenyl)-5-hydroxy-6-(hydroxymethyl)-N-((3R,4S)-4-hydroxytetrahydrofuran-3-yl)-3-methoxytetrahydro-2H-pyran-2-carboxamide] was 73 nM; that for `CO[C@@H]1[C@@H](n2cc(-c3ccc(C)c(F)c3F)nn2)[C@@H](O)[C@@H](CO)O[C@H]1C(=O)N(c1cc(C)cc(Br)c1)[C@H]1COC[C@@H]1O` [Example 21, (2R,3R,4S,5R,6R)-N-(3-bromo-5-methylphenyl)-4-(4-(2,3-difluoro-4-methylphenyl)-1H-1,2,3-triazol-1-yl)-5-hydroxy-6-(hydroxymethyl)-N-((3S,4R)-4-hydroxytetrahydrofuran-3-yl)-3-methoxytetrahydro-2H-pyran-2-carboxamide] was 35 nM. The value for `CO[C@@H]1[C@@H](n2cc(-c3ccc(C)c(F)c3F)nn2)[C@@H](O)[C@@H](CO)O[C@H]1C(=O)N(c1cc(Cl)cc(Cl)c1)[C@H]1COC[C@@H]1O` [Example 19, (2R,3R,4S,5R,6R)-N-(3,5-dichlorophenyl)-4-(4-(2,3-difluoro-4-methylphenyl)-1H-1,2,3-triazol-1-yl)-5-hydroxy-6-(hydroxymethyl)-N-((3S,4R)-4-hydroxytetrahydrofuran-3-yl)-3-methoxytetrahydro-2H-pyran-2-carboxamide] was 40 nM; that for `CO[C@@H]1[C@@H](n2cc(-c3cc(F)c(F)c(F)c3)nn2)[C@@H](O)[C@@H](CO)O[C@H]1C(=O)N(c1cccc(I)c1)[C@@H]1COC[C@H]1O` [Example 32, (2R,3R,4S,5R,6R)-5-hydroxy-6-(hydroxymethyl)-N-((3R,4S)-4-hydroxytetrahydrofuran-3-yl)-N-(3-iodophenyl)-3-methoxy-4-(4-(3,4,5-trifluorophenyl)-1H-1,2,3-triazol-1-yl)tetrahydro-2H-pyran-2-carboxamide] was 130 nM. As to `CO[C@@H]1[C@@H](n2cc(-c3cc(F)c(F)c(F)c3)nn2)[C@@H](O)[C@@H](CO)O[C@H]1C(=O)N(c1cc(Br)cc(Br)c1)[C@@H]1COC[C@H]1O` [Example 35, (2R,3R,4S,5R,6R)-N-(3,5-dibromophenyl)-5-hydroxy-6-(hydroxymethyl)-N-((3R,4S)-4-hydroxytetrahydrofuran-3-yl)-3-methoxy-4-(4-(3,4,5-trifluorophenyl)-1H-1,2,3-triazol-1-yl)tetrahydro-2H-pyran-2-carboxamide], the IC50 was determined as 84 nM. For the compound `CO[C@@H]1[C@@H](n2cc(-c3ccc(C)c(F)c3F)nn2)[C@@H](O)[C@@H](CO)O[C@H]1C(=O)N(c1cc(C)cc(Br)c1)[C@@H]1COC[C@H]1O` [Example 50, (2R,3R,4S,5R,6R)-N-(3-bromo-5-methylphenyl)-4-(4-(2,3-difluoro-4-methylphenyl)-1H-1,2,3-triazol-1-yl)-5-hydroxy-6-(hydroxymethyl)-N-((3R,4S)-4-hydroxytetrahydrofuran-3-yl)-3-methoxytetrahydro-2H-pyran-2-carboxamide], the IC50 was determined as 34 nM. Next, `CO[C@@H]1[C@@H](n2cc(-c3ccc(Br)c(F)c3F)nn2)[C@@H](O)[C@@H](CO)O[C@H]1C(=O)N(c1cc(Cl)cc(Cl)c1)[C@@H]1CN(C(C)=O)C[C@H]1O` [Example 80, (2R,3R,4S,5R,6R)-N-((3R,4R)-1-acetyl-4-hydroxypyrrolidin-3-yl)-4-(4-(4-bromo-2,3-difluorophenyl)-1H-1,2,3-triazol-1-yl)-N-(3,5-dichlorophenyl)-5-hydroxy-6-(hydroxymethyl)-3-methoxytetrahydro-2H-pyran-2-carboxamide]: 31 nM. Next, `CO[C@@H]1[C@@H](n2cc(-c3cc(F)c(C)c(F)c3)nn2)[C@@H](O)[C@@H](CO)O[C@H]1C(=O)N(c1cc(Br)cc(Br)c1)[C@H]1CN(C(C)=O)C[C@@H]1O` [Example 74, (2R,3R,4S,5R,6R)-N-((3S,4S)-1-acetyl-4-hydroxypyrrolidin-3-yl)-N-(3,5-dibromophenyl)-4-(4-(3,5-difluoro-4-methylphenyl)-1H-1,2,3-triazol-1-yl)-5-hydroxy-6-(hydroxymethyl)-3-methoxytetrahydro-2H-pyran-2-carboxamide]: 27 nM; `CO[C@@H]1[C@@H](n2cc(-c3ccc(C)c(F)c3F)nn2)[C@@H](O)[C@@H](CO)O[C@H]1C(=O)N(c1cc(Cl)cc(Cl)c1)[C@@H]1COC[C@H]1O` [Example 48, (2R,3R,4S,5R,6R)-N-(3,5-dichlorophenyl)-4-(4-(2,3-difluoro-4-methylphenyl)-1H-1,2,3-triazol-1-yl)-5-hydroxy-6-(hydroxymethyl)-N-((3R,4S)-4-hydroxytetrahydrofuran-3-yl)-3-methoxytetrahydro-2H-pyran-2-carboxamide]: 29 nM. The value for `CO[C@@H]1[C@@H](n2cc(-c3cc(F)c(F)c(F)c3)nn2)[C@@H](O)[C@@H](CO)O[C@H]1C(=O)N(c1cc(Cl)cc(C#N)c1)[C@H]1CCOC[C@@H]1O` [Example 100, (2R,3R,4S,5R,6R)-N-(3-chloro-5-cyanophenyl)-5-hydroxy-6-(hydroxymethyl)-N-((3R,4S)-3-hydroxytetrahydro-2H-pyran-4-yl)-3-methoxy-4-(4-(3,4,5-trifluorophenyl)-1H-1,2,3-triazol-1-yl)tetrahydro-2H-pyran-2-carboxamide] was 16 nM. Consider `CO[C@@H]1[C@@H](n2cc(-c3cc(F)c(F)c(F)c3)nn2)[C@@H](O)[C@@H](CO)O[C@H]1C(=O)N(c1cc(Cl)cc(Cl)c1)[C@H]1COCC[C@@H]1O` [Example 105, (2R,3R,4S,5R,6R)-N-(3,5-dichlorophenyl)-5-hydroxy-6-(hydroxymethyl)-N-((3S,4S)-4-hydroxytetrahydro-2H-pyran-3-yl)-3-methoxy-4-(4-(3,4,5-trifluorophenyl)-1H-1,2,3-triazol-1-yl)tetrahydro-2H-pyran-2-carboxamide], for which the IC50 is 18 nM. Next, `CO[C@@H]1[C@@H](n2cc(-c3cc(F)c(F)c(F)c3)nn2)[C@@H](O)[C@@H](CO)O[C@H]1C(=O)N(c1cc(Cl)cc(Cl)c1)[C@H]1CCOC[C@@H]1O` [Example 99, (2R,3R,4S,5R,6R)-N-(3,5-dichlorophenyl)-5-hydroxy-6-(hydroxymethyl)-N-((3R,4S)-3-hydroxytetrahydro-2H-pyran-4-yl)-3-methoxy-4-(4-(3,4,5-trifluorophenyl)-1H-1,2,3-triazol-1-yl)tetrahydro-2H-pyran-2-carboxamide]: 16 nM; `CO[C@@H]1[C@@H](n2cc(-c3ccc(Cl)c(Cl)c3)nn2)[C@@H](O)[C@@H](CO)O[C@H]1C(=O)N(c1cc(C)cc(Br)c1)[C@H]1COC[C@@H]1O` [Example 29, (2R,3R,4S,5R,6R)-N-(3-bromo-5-methylphenyl)-4-(4-(3,4-dichlorophenyl)-1H-1,2,3-triazol-1-yl)-5-hydroxy-6-(hydroxymethyl)-N-((3S,4R)-4-hydroxytetrahydrofuran-3-yl)-3-methoxytetrahydro-2H-pyran-2-carboxamide]: 153 nM.

In the case of `CO[C@@H]1[C@@H](n2cc(-c3ccc(C)c(F)c3F)nn2)[C@@H](O)[C@@H](CO)O[C@H]1C(=O)N(c1cc(C)cc(Br)c1)[C@@H]1CN(C=O)C[C@H]1O` [Example 95, (2R,3R,4S,5R,6R)-N-(3-bromo-5-methylphenyl)-4-(4-(2,3-difluoro-4-methylphenyl)-1H-1,2,3-triazol-1-yl)-N-((3R,4R)-1-formyl-4-hydroxypyrrolidin-3-yl)-5-hydroxy-6-(hydroxymethyl)-3-methoxytetrahydro-2H-pyran-2-carboxamide], the concentration for half-maximal inhibition (IC50) came out at 40 nM.

On to `CO[C@@H]1[C@@H](n2cc(-c3ccc(Br)c(F)c3F)nn2)[C@@H](O)[C@@H](CO)O[C@H]1C(=O)N(c1cc(Cl)cc(Cl)c1)[C@@H]1COC[C@H]1O` [Example 41, (2R,3R,4S,5R,6R)-4-(4-(4-bromo-2,3-difluorophenyl)-1H-1,2,3-triazol-1-yl)-N-(3,5-dichlorophenyl)-5-hydroxy-6-(hydroxymethyl)-N-((3R,4S)-4-hydroxytetrahydrofuran-3-yl)-3-methoxytetrahydro-2H-pyran-2-carboxamide], for which the IC50 was found to be 63 nM. Next, `CO[C@@H]1[C@@H](n2cc(-c3cc(F)c(F)c(F)c3)nn2)[C@@H](O)[C@@H](CO)O[C@H]1C(=O)N(c1cc(Cl)cc(Cl)c1)[C@@H]1COC[C@H]1O` [Example 33, (2R,3R,4S,5R,6R)-N-(3,5-dichlorophenyl)-5-hydroxy-6-(hydroxymethyl)-N-((3R,4S)-4-hydroxytetrahydrofuran-3-yl)-3-methoxy-4-(4-(3,4,5-trifluorophenyl)-1H-1,2,3-triazol-1-yl)tetrahydro-2H-pyran-2-carboxamide]: 104 nM.
